For one experiment, the system named is Escherichia coli. The experiment can be described thus: Anti-bacterial activity against Escherichia coli ATCC 11303 measured after 24 hrs by microtiter broth dilution method. Format: functional. To be noted: ATCC 11303, 24 h. In general terms: In broth dilution the organism is exposed to a series of concentrations in liquid medium.
Experiment [1] has as its system Staphylococcus aureus. The experiment can be described thus: Anti-bacterial activity against Staphylococcus aureus ATCC 10832 measured after 24 hrs by microtiter broth dilution method. Format: functional. To be noted: ATCC 10832, 24 h.
Experiment [2] concerns Staphylococcus aureus. Briefly: Anti-bacterial activity against methicillin-resistant Staphylococcus aureus ATCC 700699 measured after 24 hrs by microtiter broth dilution method. Format: functional. The settings on record: Mu50, 24 h.
Experiment [3] concerns Bacillus subtilis. Briefly: Anti-bacterial activity against Bacillus subtilis ATCC 33712 measured after 24 hrs by microtiter broth dilution method. The format is functional. To be noted: ATCC 33712, 24 h.
Another experiment has as its system Candida albicans. The experiment can be described thus: microbe, parasite or virus in culture. The format is functional. To be noted: ATCC 10231, 24 h.
Experiment [4] relates to Bacillus subtilis. Briefly: Potency index, ratio of sodium penicillin IC50 to compound IC50 for anti-bacterial activity against Bacillus subtilis ATCC 33712. The format is functional.
The test system of experiment [5] is Bacillus subtilis. The experiment can be described thus: Potency index, ratio of ceftazidime IC50 to compound IC50 for anti-bacterial activity against Bacillus subtilis ATCC 33712. The format is functional.
Experiment [6] concerns Bacillus subtilis. Briefly: Potency index, ratio of Cefotaxime IC50 to compound IC50 for anti-bacterial activity against Bacillus subtilis ATCC 33712. The format is functional.
For experiment [7], the system named is Bacillus subtilis. Briefly: Potency index, ratio of Cefradine MIC to compound MIC for anti-bacterial activity against Bacillus subtilis ATCC 33712.

SMILES strings stand for the structures. ≈ marks a conversion by molar mass, not a printed value.

Description for Candida albicans: Anti-fungal activity against Candida albicans ATCC 10231 measured after 24 hrs by microtiter broth dilution method

As for `CC1(C)S[C@@H]2[C@H](NC(=O)Cc3ccccc3)C(=O)N2[C@H]1C(=O)[O-].[Na+]` [PENICILLIN G SODIUM], the MIC in the experiment with Escherichia coli came to 0.78 µg/mL; in the experiment on Staphylococcus aureus [1] it was 3.12 µg/mL; against Staphylococcus aureus [2], 3.12 µg/mL; in the experiment with Bacillus subtilis [3], 0.195 µg/mL.

`CO/N=C(\C(=O)N[C@@H]1C(=O)N2C(C(=O)O)=C(COC(C)=O)CS[C@H]12)c1csc(N)n1` [CEFOTAXIME]: the MIC against Escherichia coli came to 200 µg/mL (≈ 439 µM); against Staphylococcus aureus [1] it was 3.12 µg/mL (≈ 6.85 µM); against Staphylococcus aureus [2] it was 3.12 µg/mL (≈ 6.85 µM); in the experiment on Bacillus subtilis [3], 0.78 µg/mL (≈ 1.71 µM).

On to `CC(C)(O/N=C(\C(=O)N[C@@H]1C(=O)N2C(C(=O)[O-])=C(C[n+]3ccccc3)CS[C@H]12)c1csc(N)n1)C(=O)O` [CEFTAZIDIME], for which the MIC against Escherichia coli was determined as 200 µg/mL (≈ 366 µM); with Staphylococcus aureus [1], 0.78 µg/mL (≈ 1.43 µM); against Staphylococcus aureus [2], 12.5 µg/mL (≈ 22.9 µM); in the experiment on Bacillus subtilis [3], 6.25 µg/mL (≈ 11.4 µM).

`CC(C)Cc1nc2cc(C[C@H](Oc3ccc(C(C)(C)C)cc3)C(=O)O)ccc2o1`: the MIC against Candida albicans was above 200 µg/mL; in the experiment on Escherichia coli, 3.12 µg/mL (≈ 7.89 µM); in the experiment with Bacillus subtilis [3], 1.56 µg/mL (≈ 3.94 µM).

In turn, `Clc1ccc(COC(Cn2ccnc2)c2ccc(Cl)cc2Cl)c(Cl)c1.O=[N+]([O-])O` (stereo not drawn) [MICONAZOLE NITRATE] yielded an MIC against Candida albicans of 1.56 µg/mL.

`COc1cc(CCc2nc3cc(C[C@H](Oc4ccc(C(C)(C)C)cc4)C(=O)O)ccc3o2)cc(OC)c1OC`: the MIC was above 200 µg/mL against Candida albicans; 200 µg/mL (≈ 375 µM) in the experiment with Escherichia coli; 100 µg/mL (≈ 187 µM) in the experiment with Staphylococcus aureus [1]; 100 µg/mL (≈ 187 µM) against Staphylococcus aureus [2]; 100 µg/mL (≈ 187 µM) against Bacillus subtilis [3].

`CC(C)(C)c1ccc(O[C@@H](Cc2ccc3oc(CC4CCOCC4)nc3c2)C(=O)O)cc1`: the MIC in the experiment on Candida albicans is above 200 µg/mL; with Escherichia coli, above 200 µg/mL; against Bacillus subtilis [3], 200 µg/mL (≈ 457 µM).

Regarding `CC(C)(C)c1ccc(O[C@@H](Cc2ccc3oc(CCc4ccc(F)cc4)nc3c2)C(=O)O)cc1`, the MIC with Candida albicans is above 200 µg/mL; against Escherichia coli, 1.56 µg/mL (≈ 3.38 µM); in the experiment with Staphylococcus aureus [1] it was 1.56 µg/mL (≈ 3.38 µM); in the experiment with Staphylococcus aureus [2], 1.56 µg/mL (≈ 3.38 µM); with Bacillus subtilis [3] it was 0.39 µg/mL (≈ 0.845 µM).

Regarding `CC(C)(C)c1ccc(O[C@@H](Cc2ccc3oc(CCc4ccccc4)nc3c2)C(=O)O)cc1`, the MIC against Candida albicans is above 200 µg/mL; against Escherichia coli it was 3.12 µg/mL (≈ 7.03 µM); against Staphylococcus aureus [1], 1.56 µg/mL (≈ 3.52 µM); in the experiment on Staphylococcus aureus [2], 1.56 µg/mL (≈ 3.52 µM); in the experiment on Bacillus subtilis [3], 0.39 µg/mL (≈ 0.879 µM).

Take `CC(=O)N1CCN(c2ccc(OCC3COC(Cn4ccnc4)(c4ccc(Cl)cc4Cl)O3)cc2)CC1` (stereo not drawn) [KETOCONAZOLE]: the MIC in the experiment on Candida albicans was below 0.39 µg/mL.

`CC(C)(C)c1ccc(O[C@@H](Cc2ccc3oc(CCc4cn5cc(C(F)(F)F)ccc5n4)nc3c2)C(=O)O)cc1`: the MIC against Candida albicans is above 200 µg/mL; in the experiment on Escherichia coli it was above 200 µg/mL; in the experiment on Staphylococcus aureus [1], 50 µg/mL (≈ 90.7 µM); against Staphylococcus aureus [2], 25 µg/mL (≈ 45.3 µM); in the experiment with Bacillus subtilis [3] it was 50 µg/mL (≈ 90.7 µM).

Take `CC(C)(C)c1ccc(O[C@@H](Cc2ccc3oc(CCc4cc5ccccc5o4)nc3c2)C(=O)O)cc1`: the MIC against Candida albicans was above 200 µg/mL; against Escherichia coli it was 0.78 µg/mL (≈ 1.61 µM); with Staphylococcus aureus [1] it was 0.78 µg/mL (≈ 1.61 µM); with Staphylococcus aureus [2], 0.78 µg/mL (≈ 1.61 µM); with Bacillus subtilis [3], 0.39 µg/mL (≈ 0.807 µM).

Consider `CCCCCCCc1nc2cc(C[C@H](Oc3ccc(C(C)(C)C)cc3)C(=O)O)ccc2o1`, for which the MIC in the experiment with Candida albicans is above 200 µg/mL; against Escherichia coli, 1.56 µg/mL (≈ 3.57 µM); against Staphylococcus aureus [1], 0.78 µg/mL (≈ 1.78 µM); with Staphylococcus aureus [2], 1.56 µg/mL (≈ 3.57 µM); with Bacillus subtilis [3], 0.78 µg/mL (≈ 1.78 µM).

As to `CC(C)c1ccc(CCc2nc3cc(C[C@H](Oc4ccc(C(C)(C)C)cc4)C(=O)O)ccc3o2)cc1`, the MIC against Candida albicans is above 200 µg/mL; in the experiment with Escherichia coli, 0.78 µg/mL (≈ 1.61 µM); in the experiment with Staphylococcus aureus [1], 0.39 µg/mL (≈ 0.803 µM); against Staphylococcus aureus [2], 0.195 µg/mL (≈ 0.402 µM); in the experiment with Bacillus subtilis [3], 0.098 µg/mL (≈ 0.202 µM). The “Ratio IC50” value in the experiment with Bacillus subtilis [4] is given as 2; in the experiment on Bacillus subtilis [5] it was 8 - 510; in the experiment with Bacillus subtilis [6] it was 8 - 510. Further, the “Ratio MIC” value in the experiment with Bacillus subtilis [7] is given as 8 - 510.

For the compound `Cc1oc(-c2ccccc2)nc1CCc1nc2cc(C[C@H](Oc3ccc(C(C)(C)C)cc3)C(=O)O)ccc2o1`, the MIC against Candida albicans is above 200 µg/mL; against Escherichia coli, 1.56 µg/mL (≈ 2.97 µM); in the experiment on Staphylococcus aureus [1], 1.56 µg/mL (≈ 2.97 µM); with Staphylococcus aureus [2], 0.78 µg/mL (≈ 1.49 µM); against Bacillus subtilis [3], 0.78 µg/mL (≈ 1.49 µM).

As to `CC(C)(C)c1ccc(O[C@@H](Cc2ccc3oc(CCc4ncco4)nc3c2)C(=O)O)cc1`, the MIC is above 200 µg/mL with Candida albicans; above 200 µg/mL with Escherichia coli; above 200 µg/mL in the experiment with Staphylococcus aureus [1]; 200 µg/mL (≈ 460 µM) in the experiment with Staphylococcus aureus [2]; 200 µg/mL (≈ 460 µM) with Bacillus subtilis [3].

Consider `Cc1oc(-c2ccccc2)nc1CCCc1nc2cc(C[C@H](Oc3ccc(C(C)(C)C)cc3)C(=O)O)ccc2o1`, for which the MIC was above 200 µg/mL in the experiment on Candida albicans; 3.12 µg/mL (≈ 5.79 µM) with Escherichia coli; 1.56 µg/mL (≈ 2.9 µM) against Staphylococcus aureus [1]; 1.56 µg/mL (≈ 2.9 µM) in the experiment on Staphylococcus aureus [2]; 3.12 µg/mL (≈ 5.79 µM) against Bacillus subtilis [3].

As to `CC1=C(C(=O)O)N2C(=O)[C@@H](NC(=O)[C@H](N)C3=CCC=CC3)[C@H]2SC1` [CEPHRADINE], the MIC against Escherichia coli was 25 µg/mL (≈ 71.5 µM); against Staphylococcus aureus [1], 25 µg/mL (≈ 71.5 µM); in the experiment on Staphylococcus aureus [2], 50 µg/mL (≈ 143 µM); against Bacillus subtilis [3], 50 µg/mL (≈ 143 µM).

The values are drawn from ChEMBL document CHEMBL4002545, “Design, synthesis and antimicrobial evaluation of novel benzoxazole derivatives” (2017).
